# In publication PMC11802874, “The hypolipidemic effect of MI-883, the combined CAR agonist/ PXR antagonist, in diet-induced hypercholesterolemia model” (Nature Communications, 2025):
# Where “and” joins values, the source holds several entries; their conditions need not be identical. Identical values can stand only once.
# Assays:
# [1] = Mouse plasma protein binding; type: in vitro ADME
# Excerpt: Plasma protein binding, and stability in human and mouse plasma have been tested as previously described.
# PXR/NCOA2 = target: T1, PXR/NCOA2 (Homo sapiens, UniProt O75469); assay: Mammalian two-hybrid PXR/coactivator NCOA2 recruitment, HepG2; type: cell-based; parameters: key: firefly/Metridia luciferase activity ratio (normalized)
# T1 construct: PXR-LBD (residues 108–434); expressed in transfected cells; host or cells: HepG2
# Method: The GAL4-dependent pGL4-G5, harboring a pentamer of GAL4 binding sites in front of the E1b promoter was described before.
# Transient batch transfection of HepG2 cells was done as described above. […] All transfections included 0.01 µg pMetLuc2control per well for normalization of firefly luciferase reporter activities. After overnight incubation with the transfection mixtures, cells were treated with chemicals in a volume of 100 µl of cell culture medium. […] Firefly luciferase activity was measured in 10 µl of cell lysates, and Metridia luciferase activity was analyzed in 10 µl of medium supernatant, both as described before. Results were normalized by dividing firefly luciferase activity by Metridia luciferase activity measured from the same well. Measurements of samples were repeated several times (n ≥ 3).
# [2] = Metabolic stability in mouse liver S9 fraction; details: male, CD-1, mouse
# Method: Shimadzu HPLC system including vacuum degasser, gradient pumps, reverse phase HPLC column, column oven, and autosampler with an API 4000 QTRAP mass spectrometer (Applied Biosystems/MDS Sciex (AB Sciex) with Turbo V ion source and TurboIonspray interface were used. The reference compound midazolam, which is metabolized both by phase I and phase II enzymes, was used. The elimination constant (kel), half-life (t1/2), and intrinsic clearance (Clint) were determined[19] (Table S1).
# [3] = system: humanized PXR-CAR-CYP3A4/3A7 mice; assay: Hepatic induction study in humanized PXR-CAR-CYP3A4/3A7 mice (i.p.); type: in vivo, mouse
# Excerpt: In the induction experiments, […] was sampled from the gallbladder.
# [4] = system: 3D primary human hepatocyte spheroids; assay: RT-qPCR mRNA expression in 3D primary human hepatocyte spheroids; type: cell-based; details: for CYP2B6 fold change, 3D PHH spheroids, mean of donors / CYP3A4 fold change, 3D PHH spheroids, mean of donors: MI-883 (5 uM)
# Method: Briefly, PHHs were cultivated for 6 days to generate compact spheroids by spontaneous self-aggregation and then half of PHH medium was exchanged for FBS-free PHH medium. 3D PHHs were treated with MI-883 (5 μM) commenced from day 8 within a time range of 8–120 h (time points were 8, 12, 24, 48, 72, and 120 h). Conditioned FBS-free PHH medium was changed every 2–3 days of the treatment. […] Data are presented as the mean ± SD of fold change expression gained from 3D spheroids of three different donors. ATP assay has been performed as described.
# CAR-LBD = target: T2, CAR-LBD (Homo sapiens, UniProt Q14994); assay: MARCoNI CAR-LBD coregulator interaction array; type: biochemical; details: 100 μM
# T2 construct: HIS-tagged CAR-LBD (ThermoFisher Sciences, Cat. No PV4836); purchased ThermoFisher PV4836
# T2 sequence (Q14994 109-348 isoform Q14994-2 limits assumed): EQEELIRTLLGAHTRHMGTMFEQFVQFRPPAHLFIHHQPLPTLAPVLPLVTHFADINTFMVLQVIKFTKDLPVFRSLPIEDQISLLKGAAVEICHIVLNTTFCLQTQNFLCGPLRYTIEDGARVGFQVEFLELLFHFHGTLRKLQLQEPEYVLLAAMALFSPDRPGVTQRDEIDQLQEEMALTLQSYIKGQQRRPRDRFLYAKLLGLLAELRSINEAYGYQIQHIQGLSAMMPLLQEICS
# Method: The reaction was performed in a fully automated microarray processing and fluorescent imaging platform (PamStation12) at 20 °C for 80 cycles (two cycles per minute). After removal of the unbound CAR-LBD receptor by washing each array with 25 µl Tris-buffered Saline (TBS) buffer, fluorescent images of the PamChip microarrays were obtained using the PamStation12, and then were analyzed for quantification of CAR binding using BioNavigator software (PamGene International B.V.). For data and statistical analysis, BioNavigator was used.
# Modulation index (MI) is the log10-transformed relative binding value, which is calculated by the compound’s binding value, relative to the vehicle control (DMSO) binding value.
# human PXR = target: T3, human PXR (Homo sapiens, UniProt O75469); assay: PXR-dependent CYP3A4 reporter gene assay in H-P cells; type: cell-based; parameters: expressed in transfected cells; host or cells: H-P cells (HepG2 stably transfected with pcDhPXR)
# T3 sequence (O75469 1-434): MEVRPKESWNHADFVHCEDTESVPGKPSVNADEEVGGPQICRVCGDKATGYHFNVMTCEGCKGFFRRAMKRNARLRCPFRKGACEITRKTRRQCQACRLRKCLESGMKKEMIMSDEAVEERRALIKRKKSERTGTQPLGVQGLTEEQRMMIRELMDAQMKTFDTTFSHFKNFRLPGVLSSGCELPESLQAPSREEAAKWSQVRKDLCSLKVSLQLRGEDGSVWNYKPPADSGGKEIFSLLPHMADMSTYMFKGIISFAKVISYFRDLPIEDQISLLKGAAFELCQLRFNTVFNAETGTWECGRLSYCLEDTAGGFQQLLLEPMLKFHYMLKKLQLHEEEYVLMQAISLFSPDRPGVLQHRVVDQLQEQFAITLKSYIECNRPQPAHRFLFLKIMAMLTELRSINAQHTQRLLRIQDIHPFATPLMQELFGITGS
# Method: Luciferase reporter gene assays in PXR expressing H-P cells and mammalian two-hybrid reporter assays have been performed as described before[55],[57].
# We also analyzed PXR-dependent CYP3A4 reporter gene assays in H-P cells, which represent HepG2 cells stably over-expressing human PXR, due to transfection of PXR expression plasmid pcDhPXR^5. […] 0.01 µg Metridia luciferase expression plasmid pMetLuc2control per well was included.
# [5] = system: PXR-responsive CYP3A4(pER6)-luc construct; assay: CYP3A4(pER6)-luc luciferase reporter assay in HepG2 cells
# [6] = single agents i.p.: Rif 3×5 mg/kg, CITCO 10 mg/kg two doses, MI-883 10 mg/kg 3 days
smiles,measurement,setting,value
"NC(=O)c1cc(Cn2cc(-c3c(-c4ccc(Cl)cc4)nc4cc(F)ccn34)nn2)ccc1Cl [MI-883, 2-chloro-5-((4-(2-(4-chlorophenyl)-7-fluoroimidazo[1,2-a]pyridin-3-yl)-1H-1,2,3-triazol-1-yl)methyl)benzamide]",fraction unbound,[1],0.01
same,"PXR/TIF2 (NCOA2) two-hybrid activity, replicates",PXR/NCOA2; MI-883 30 μM,1.15 and 1.65 and 1.3 and 1.26 and 0.52
same,"PXR/TIF2 (NCOA2) two-hybrid activity, replicates","PXR/NCOA2; single agent: RIF (10 µM), MI-883 10 μM",0.75 and 0.81 and 0.95 and 0.79 and 0.57
same,microsomal CLint,[2]; liver S9 fraction,3 µL/min/mg
same,half-life,[2]; s9,1.87 h
same,fold mRNA induction CYP3A4 in livers of humanized PXR-CAR-CYP3A mice,"[3]; MI-883 10 mg/kg i.p. 3 days, not significant",1.9 fold
same,"hepatic CYP3A4 mRNA, hPXR/hCAR/CYP3A4/7 mice (Fig. 3e), individual animals",[3]; Rif + MI-883 combination i.p.,15.1375 and 21.1204 and 7.333 and 13.3527
same,"hepatic Cyp2b10 mRNA, hPXR/hCAR/CYP3A4/7 mice (Fig. 3e), individual animals",[3]; Rif + MI-883 combination i.p.,37.4609 and 22.8189 and 29.2533 and 22.0407
same,"hepatic CYP3A4 mRNA, hPXR/hCAR/CYP3A4/7 mice (Fig. 3e), individual animals",[3]; [6],2.527 and 2.124 and 1.135
same,"hepatic Cyp2b10 mRNA, hPXR/hCAR/CYP3A4/7 mice (Fig. 3e), individual animals",[3]; [6],5.955 and 3.722 and 12.2143
same,"Cyp2b10 mRNA in the liver, preliminary studies",[3]; single dose of 5 mg/kg in oral gavage,significant induction
same,"proliferative biomarkers MDM2, PCNA, FOXM1 in 3D human hepatocyte spheroid",[4]; 72 h,no significant effects
same,"CYP2B6 fold change, 3D PHH spheroids, mean of donors",[4]; 8 h,1.9
same,"CYP3A4 fold change, 3D PHH spheroids, mean of donors",[4]; 8 h,0.9
same,"CYP2B6 fold change, 3D PHH spheroids, mean of donors",[4]; 12 h,3.0
same,"CYP3A4 fold change, 3D PHH spheroids, mean of donors",[4]; 12 h,0.7
same,"CYP2B6 fold change, 3D PHH spheroids, mean of donors",[4]; 24 h,5.1
same,"CYP3A4 fold change, 3D PHH spheroids, mean of donors",[4]; 24 h,0.8
same,"CYP2B6 fold change, 3D PHH spheroids, mean of donors",[4]; 48 h,8.0
same,"CYP3A4 fold change, 3D PHH spheroids, mean of donors",[4]; 48 h,1.0
same,"CYP2B6 fold change, 3D PHH spheroids, mean of donors",[4]; 72 h,8.2
same,"CYP3A4 fold change, 3D PHH spheroids, mean of donors",[4]; 72 h,0.8
same,"CYP2B6 fold change, 3D PHH spheroids, mean of donors",[4]; 120 h,6.7
same,"CYP3A4 fold change, 3D PHH spheroids, mean of donors",[4]; 120 h,0.7
same,CAR-coregulator interaction profile,CAR-LBD,"attracts several coactivators, including NCOA1, NCOA2, and NCOA3 proteins"
same,"PXR-dependent CYP3A4 reporter activity in H-P cells, replicates","human PXR; 5 MI883 (µM not given), DMSO ~1",0.825 and 0.683 and 0.491
same,"PXR-dependent CYP3A4 reporter activity in H-P cells, replicates",human PXR; 30 MI883,0.49 and 0.788 and 0.597
same,"PXR-dependent CYP3A4 reporter activity in H-P cells, replicates",human PXR; RIF + 5 MI883,10.8 and 10.1 and 9.53
same,"PXR-dependent CYP3A4 reporter activity in H-P cells, replicates",human PXR; RIF + 10 MI883,5.74 and 6.79 and 5.06
same,"PXR-dependent CYP3A4 reporter activity in H-P cells, replicates",human PXR; RIF + 30 MI883,1.18 and 2.43 and 2.32
same,"PXR-dependent CYP3A4 reporter activity in H-P cells, replicates","human PXR; single agent: RIF (10 µM), 10 MI883",0.606 and 0.813 and 0.535
same,"pER6-luc luciferase gene reporter assay (Fig1 m), replicates",[5]; Rif 1μM + MI-883 30μM,0.18 and 0.17 and 0.185
same,"pER6-luc luciferase gene reporter assay (Fig1 m), replicates",[5]; SR12813 1μM + MI-883 30μM,0.21 and 0.22 and 0.19
same,"pER6-luc luciferase gene reporter assay (Fig1 m), replicates",[5]; single agent 10μM,0.17 and 0.18
same,"pER6-luc luciferase gene reporter assay (Fig1 m), replicates",[5]; single agent 30μM,0.21 and 0.19
